Consider six molecules from patent publication US9962372B2, “Pharmaceutical composition for the treatment of mycosis” (priority 2015, dated 2018).

Like-named read-outs stand apart in the source and are kept apart here.

One experiment has as its system C. albicans ATCC® 10231. As to the kind of experiment: Broth dilution method: MIC and synergy. The class given is cell-based, Candida albicans. As to conditions: for MIC: RPMI-1640, 35° C., 48 h; for MIC in combination with benzydamine: in combination with benzydamine 0.125 mg/ml. How it is done: (§1) Candida strains stored at −80° C. were thawed and streaked on SDA plate and then a second subculture was performed. Then, Candida strains suspensions were prepared as follows.
(§2) 10 ml of saline were placed in a 50 ml falcon tube with 5 g of glass beads. Loopful of the cells of the colonies of the second subculture were transferred into the saline and suspended by rubbing the loop against the wet wall of the tube to dislodge the cells. The tube was then shacked for 3 minutes using a mechanical shaker.
(§3) The number of cells in the suspension was adjusted from 1.5×10^6 to 5.0×10^6 colony forming units (CFU)/ml using saline according to Mc Farland standard No. 0.5 standard and reading the optical density at 550 nm.
(§4) For counting, serially 1:10 dilutions were prepared using saline, to obtain 10^−4 and 10^−5 dilutions of the suspension. A sample of 100 μl of each dilution was spread plate and incubated at 37° C. for 48 h.
(§5) The methodology used for the broth dilution method was similar to that disclosed in “EUCAST Definitive Document EDef 7.1: method for the determination of broth dilution MICs of antifungal agents for fermentative yeasts” (Clin Microbiol Infect 2008; 14: 398-408).
(§6) Then, serial 1:2 dilutions were prepared in DMSO, to concentrations from 10.0 mg/ml to 0.078 mg/ml. These solutions were further diluted 1:100 in RPMI-1640 (GiBCO® by Life Technologies) containing 2% glucose, 3-(N-morpholino) propanesulfonic acid (MOPS, by SIGMA) without NaHCO3, to final concentration from 100 μg/ml to 0.78 μg/ml.
(§7) Then, serial 1:2 dilutions were prepared in DMSO, to concentrations from 1.250 mg/ml to 0.0196 mg/ml. These solutions were further diluted 1:100 in RPMI-1640 (GiBCO® by Life Technologies) containing 2% glucose, 3-(N-morpholino) propanesulfonic acid (MOPS, by SIGMA) without NaHCO3, to final concentration from 12.50 μg/ml to 0.196 μg/ml.
(§8) Then, serial 1:2 dilutions were prepared in DMSO, to concentrations from 5.0 mg/ml to 0.3125 mg/ml. These solutions were further diluted 1:100 in RPMI-1640 (GiBCO® by Life Technologies) containing 2% glucose, 3-(N-morpholino) propanesulfonic acid (MOPS, by SIGMA) without NaHCO3, to final concentration from 50 μg/ml to 3.125 μg/ml.
(§9) Benzydamine was dissolved in water to a concentration of 25 mg/ml. Then, serial 1:2 dilutions were prepared in water, to concentrations from 25 mg/ml to 3.125 mg/ml. 1 ml of each solution was added to 24 ml (1:25 dilution) of RPMI-1640 (GiBCO® by Life Technologies) containing 2% glucose, 3-(N-morpholino) propanesulfonic acid (MOPS, by SIGMA) without NaHCO3, to final concentration from 1 mg/ml to 0.125 mg/ml.
As positive control Amphotericin B from a stock solution of 1600 μg/ml was diluted in DMSO to solutions having concentrations from 200 μg/ml to 50 μg/ml. These solutions were diluted 1:100 in RPMI-1640 (GiBCO®, by Life Technology) containing 2% glucose, 3-(N-morpholino) propanesulfonic acid (MOPS, by SIGMA) without NaHCO3, to concentrations from 2 μg/ml to 0.5 μg/ml.
(§10) (B) For synergy studies, further solutions of econazole, miconazole, clotrimazole and fluconazole nitrate having concentrations from 100 μg/ml to 0.049 μg/ml were prepared in RPMI-1640 as disclosed in paragraph 1.3.1(A).
(§11) Also, further solutions of benzydamine having concentrations from 1 mg/ml to 0.25 mg/ml were prepared in RPMI-1640 as disclosed in paragraph 1.3.1(A). Moreover, the solution of benzydamine with a concentration of 1 mg/ml was further diluted 1:1.43 with RPMI-1640 to concentration of 0.7 mg/ml.
(§12) Microdilution plates containing wells with a nominal capacity of about 300 μL/well were used.
(§13) The Candida strains suspensions prepared as described in paragraph 1.1 were grown on Sabouraud's agar medium SDA (Oxoid). Colonies were diluted in phosphate-buffered saline (PBS) and suspensions were adjusted to approximately 1-5×10^5 CFU/ml using Mc Farland 0.5 standard and reading the optical density at 550 nm.
Background: In broth dilution the organism is exposed to a series of concentrations in liquid medium.

The subject of experiment [1] is C. lusitaniae ATCC® 34449. As to the kind of experiment: Agar dilution method: MIC and synergy (FIC). Format: cell-based, Candida lusitaniae. The conditions noted are these: for MIC: Clavispora lusitaniae, ATCC34449, active ingredient alone, agar dilution, Sabouraud agar, 35° C., 48 h, complete inhibition of growth. The procedure:
Candida strains stored at -80° C. were thawed and streaked on SDA plate and then a second subculture was performed. Then, Candida strains suspensions were prepared as follows. 10 ml of saline were placed in a 50 ml falcon tube with 5 g of glass beads. Loopful of the cells of the colonies of the second subculture were transferred into the saline and suspended by rubbing the loop against the wet wall of the tube to dislodge the cells. The tube was then shacked for 3 minutes using a mechanical shaker. The number of cells in the suspension was adjusted from 1.5×10^6 to 5.0×10^6 colony forming units (CFU)/ml using saline according to Mc Farland standard No. 0.5 standard and reading the optical density at 550 nm. For counting, serially 1:10 dilutions were prepared using saline, to obtain 10^-4 and 10^-5 dilutions of the suspension. A sample of 100 μl of each dilution was spread plate and incubated at 37° C. for 48 h. […] The methodology was similar to that disclosed by R. Moody et al., “In Vitro Activities of Miconazole, Miconazole Nitrate, and Ketoconazole Alone and Combined with Rifampin against Candida spp. and Torulopsis glabrata Recovered from Cancer Patients.”, Antimicrobial Agents and Chemotherapy: 1980, 17, 871-875. Standard Petri dishes (92 mm diameter×16 mm height) were used. After the agar was poured, plates were allowed to cool and then immediately used. […] All the Petri dishes were incubated at 35° C. for 48 h. (B) For synergy studies, the surface of each Petri dish prepared as described in paragraph 1.2.1(B) was inoculated with four spots (20 μl inoculum volume) of the Candida strains suspensions prepared as described in paragraph 1.1, and incubated at 35° C. for 48 hours. The lowest concentration of drug that produced a complete inhibition of growth for a certain Candida strain was regarded as the minimal inhibitory concentration (MIC) for said strain. […] The synergistic effect of the combinations comprising benzydamine and econazole nitrate was evaluated by calculating the fractional inhibitory concentration (FIC), in accordance with […]. et al. in Antimicrobial Agents and Chemotherapy, February 2010, p. 602-609. […] FIC[combination b+e]=[…]] is the fractional inhibitory concentration of benzydamine with respect to a specific Candida strain, calculated as the ratio between the MIC of benzydamine in the presence of a sub-MIC amount of econazole (MIC(b+e)) and the MIC of benzydamine alone (MIC(b)), as follows: FIC[e] is the fractional inhibitory concentration of econazole with respect to a specific Candida strain, calculated as the ratio between the MIC of econazole in the presence of a sub-MIC amount of benzydamine (MIC(e+b)) and the MIC of econazole alone (MIC(e)), as follows: […]
A general note: In agar dilution, organisms are placed on agar that contains the substance at set levels.

For experiment [2], the system named is C. albicans ATCC® MYA-427. As to the kind of experiment: Broth dilution method: MIC and synergy. The class given is cell-based, Candida albicans. As to conditions: for MIC: Candida albicans, active ingredient alone, RPMI-1640, 35° C., 48 h; for MIC in combination with benzydamine: in combination with benzydamine 0.125 mg/ml. The procedure: as §1, §2, §3, §4, §5, §6, §9, §10, §11, §12, §13
(§14) (A) For the calculation of the MIC, microdilution plates containing in each well 100 μl of each solution of the active ingredients obtained as described in paragraph 1.3.1(A) were prepared. The wells were then inoculated with 100 μl of Candida strains suspensions obtained as disclosed above containing 1-5×10^5 CFU/ml.
(§15) In each well, the final inoculum density and the final concentration of the active ingredients was half of that used (i.e. the final inoculum density was 0.5-2.5×10^5 CFU/ml, the concentration of econazole and miconazole was from 50 μg/ml to 0.39 μg/ml, the concentration of clotrimazole was from 6.25 μg/ml to 0.098 μg/ml, the concentration of fluconazole was from 50 μg/ml to 3.125 μg/ml and the concentration of benzydamine was from 0.5 mg/ml to 0.0625 mg/ml).
(§16) The microdilution plates were incubated for 48 hours at 35° C.
(§17) (B) For synergy studies, microdilution plates containing in each well 50 μl of each solution of econazole and miconazole and 50 μl of each solution of benzydamine, obtained as disclosed in paragraph 1.3.1(B), were prepared. Then, the wells were inoculated with 100 μl of the 1-5×10^5 CFU/ml Candida suspensions. […]

Experiment [3] concerns C. albicans ATCC® MYA-574 fluconazole resistant. Put plainly: Broth dilution method: MIC and synergy. Format: cell-based, Candida albicans. As to conditions: for MIC: Candida albicans, active ingredient alone, RPMI-1640, 35° C., 48 h. How it is done: as §1, §2, §3, §4, §5, §6, §9, §10, §11, §12, §13, §14, §15, §16, §17
In a further experiment the test system is C. tropicalis ATCC® 750. Put plainly: Broth dilution method: MIC and synergy (FIC). The class given is cell-based, Candida tropicalis. The conditions noted are these: for MIC: RPMI-1640, 35° C., 48 h; for MIC in combination with benzydamine: in combination with benzydamine 0.175 mg/ml. How it is done:
as §1, §2, §3, §4, §5, §6, §7, §8, §9, §10, §11, §12, §13, §14

The mark [4] stands for this setting: Candida tropicalis, ATCC750, active ingredient alone, read-out: MIC.
Setting [5] is: Candida albicans, ATCC10231, active ingredient alone, read-out: MIC.

`C[C@@H]1[C@H](O)[C@@H](C)/C=C/C=C/C=C/C=C/C=C/C=C/C=C/[C@H](O[C@@H]2O[C@H](C)[C@@H](O)[C@H](N)[C@@H]2O)C[C@@H]2O[C@](O)(C[C@@H](O)C[C@@H](O)[C@H](O)CC[C@@H](O)C[C@@H](O)CC(=O)O[C@H]1C)C[C@H](O)[C@H]2C(=O)O` [Amphotericin B]: the MIC (usually the lowest concentration that inhibits growth of the organism) with C. albicans ATCC® 10231 (active ingredient alone) is 0.5 µg/mL.

With `CN(C)CCCOc1nn(Cc2ccccc2)c2ccccc12` [Benzydamine], the MIC (in experiment [1]; in experiment [2]; in experiment [3]; in the experiment with C. tropicalis ATCC® 750 (setting [4]); in the experiment on C. albicans ATCC® 10231 (setting [5])) was 500 µg/mL each time. Further, the “FIC[b] (fractional inhibitory concentration of benzydamine)” value in experiment [1] (MIC of benzydamine in presence of sub-MIC econazole / MIC of benzydamine alone) came out at 0.25. For the same molecule, the “MIC of benzydamine in combination with econazole” value in experiment [3] (in combination with econazole) stood at 125 µg/mL. Also, in experiment [3] (in combination with miconazole), the “MIC of benzydamine in combination with miconazole” value was 62.5 µg/mL.

As to `Clc1ccc(COC(Cn2ccnc2)c2ccc(Cl)cc2Cl)cc1` (stereo not drawn) [Econazole nitrate], the MIC in experiment [1] turned out to be 1.56 µg/mL; in experiment [2], 25 µg/mL; in experiment [3], 25 µg/mL; in the experiment on C. tropicalis ATCC® 750 (setting [4]), 12.5 µg/mL; with C. albicans ATCC® 10231 (setting [5]), 25 µg/mL. The “FIC[e] (fractional inhibitory concentration of econazole)” value in experiment [1] (MIC of econazole in presence of sub-MIC benzydamine / MIC of econazole alone) is listed as 0.0628. Besides, the “MIC in combination with benzydamine” value in experiment [2] came out at 1.56 µg/mL; in experiment [3], 12.5 µg/mL; in the experiment on C. tropicalis ATCC® 750, 1.56 µg/mL; with C. albicans ATCC® 10231 it was 3.125 µg/mL.

As for `Clc1ccc(COC(Cn2ccnc2)c2ccc(Cl)cc2Cl)c(Cl)c1` (stereo not drawn) [Miconazole nitrate], the minimal inhibitory concentration (MIC) was found to be 25 µg/mL in experiment [2], 50 µg/mL in experiment [3], 6.25 µg/mL with C. tropicalis ATCC® 750 (setting [4]) and 6.25 µg/mL with C. albicans ATCC® 10231 (setting [5]). The “MIC in combination with benzydamine” value in experiment [2] was 0.78 µg/mL; in experiment [3] it was 12.5 µg/mL; with C. tropicalis ATCC® 750 it was 0.78 µg/mL; with C. albicans ATCC® 10231, 1.56 µg/mL.

As for Clotrimazole nitrate, the MIC with C. tropicalis ATCC® 750 (active ingredient alone) is 6.25 µg/mL; in the experiment on C. albicans ATCC® 10231 (active ingredient alone), 0.025 µg/mL. The “MIC in combination with benzydamine” value in the experiment with C. tropicalis ATCC® 750 came to 0.098 µg/mL.

As to Fluconazole nitrate, the values for the MIC with C. tropicalis ATCC® 750 (active ingredient alone) and in the experiment on C. albicans ATCC® 10231 (active ingredient alone) were 50 µg/mL and 3.125 µg/mL, respectively. The “MIC in combination with benzydamine” value in the experiment with C. tropicalis ATCC® 750 was 6.25 µg/mL.
